Results as given in publication PMC5699498 (Protein Science : A Publication of the Protein Society, 2017).

Molecular target: Lpg2936 (Legionella pneumophila, UniProt Q5ZRE6)
Assay: biochemical

Sequence of Lpg2936 (Q5ZRE6 1-244 limits assumed): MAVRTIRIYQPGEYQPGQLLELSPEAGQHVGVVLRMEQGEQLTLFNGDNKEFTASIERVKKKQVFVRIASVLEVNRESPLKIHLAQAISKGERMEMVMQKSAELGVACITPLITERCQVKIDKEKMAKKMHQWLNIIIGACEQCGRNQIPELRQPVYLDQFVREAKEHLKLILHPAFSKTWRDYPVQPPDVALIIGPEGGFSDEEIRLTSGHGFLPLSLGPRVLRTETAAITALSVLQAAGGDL

C[S+](CC[C@H](N)C(=O)O)C[C@H]1O[C@@H](n2cnc3c(N)ncnc32)[C@H](O)[C@@H]1O (stereo partly shown) [S‐adenosyl‐L‐methionine]
Kd: 12 nM
